The source of these data is PubChem BioAssay (NCI).

As usually defined, the TGI is the concentration at which net growth stops. Low readings indicate more potent growth arrest, high ones less potent growth arrest. As a reminder, the GI50 is the concentration giving 50% growth inhibition.

Test systems include NCI/ADR-RES ovarian; MCF7 breast; HT29 colon; LOX IMVI melanoma; HOP-62 NSCLC; SNB-19 CNS; SR leukemia; OVCAR-5 ovarian; MDA-MB-435; A498 renal.
What all share (assay): DTP human tumour cell line panel, 48 h

Molecules are shown by their SMILES. “And” between values parts separate entries of the source, which are not always exact repeats. Equal values may be shown once.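 A five-concentration, 48-hour dose response in 96-well plates underlies each endpoint, interpolated linearly between surrounding concentrations. GI50: concentration for 50% inhibition of growth. TGI is the concentration that stops growth completely.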

`CCC(=O)OCN1C(=O)C=CC1=O`: the TGI in the experiment with NCI/ADR-RES ovarian was 56.2 µM and 63.5 µM; with MCF7 breast it was 40.9 µM and 39.7 µM; with HT29 colon, 40.8 µM and 35.9 µM; with LOX IMVI melanoma it was 34.3 µM and 35.1 µM; with HOP-62 NSCLC it was 37.6 µM and 34.9 µM; in the experiment on SNB-19 CNS, > 100 µM and 32.5 µM. The TGI was above 100 µM with SR leukemia; 32.9 µM and 33.1 µM in the experiment with OVCAR-5 ovarian; 32.8 µM and 28.5 µM with MDA-MB-435; above 100 µM in the experiment on A498 renal. Further, the GI50 with SNB-19 CNS is above 100 µM; in the experiment with SR leukemia, 3.27 µM; in the experiment with MDA-MB-435 it was 17.4 µM; in the experiment with A498 renal, above 100 µM.
As for `Nc1ncnc2c1ncn2C1OC(C(=O)OCCO)C(O)C1O` (centres undefined), the TGI in the experiment on NCI/ADR-RES ovarian, with MCF7 breast, in the experiment on HT29 colon, in the experiment on LOX IMVI melanoma, in the experiment with HOP-62 NSCLC and in the experiment on SNB-19 CNS was above 100 µM each time. Further, the TGI in the experiment on SR leukemia, in the experiment on OVCAR-5 ovarian, with MDA-MB-435 and with A498 renal was above 100 µM each time.
For `Cn1c(=O)c2[nH]cnc2n(C)c1=O.[CH2-]C(Cc1cccc2cc(C(=O)O)c(=O)oc12)OC.[Hg+2].[OH-]` (centres undefined), the GI50 with NCI/ADR-RES ovarian is 19.8 µM; in the experiment on MCF7 breast it was 16.6 µM; in the experiment on HT29 colon, 17.1 µM; in the experiment with LOX IMVI melanoma it was 16 µM; in the experiment on HOP-62 NSCLC it was 19.2 µM; with SNB-19 CNS it was 17.7 µM. The GI50 in the experiment with SR leukemia was 20.8 µM; with OVCAR-5 ovarian, 18.6 µM; in the experiment on MDA-MB-435 it was 16.9 µM; with A498 renal, 18.7 µM. Further, the TGI with NCI/ADR-RES ovarian amounted to 38.1 µM; with MCF7 breast, 33 µM; in the experiment with HT29 colon, 32 µM; with LOX IMVI melanoma, 30.3 µM; with HOP-62 NSCLC, 41.8 µM; in the experiment with SNB-19 CNS it was 31.6 µM. In addition, the concentration for total growth inhibition (TGI) in the experiment on SR leukemia is 53.8 µM; in the experiment on OVCAR-5 ovarian, 32.7 µM; with MDA-MB-435, 30.6 µM; with A498 renal it was 33 µM.
With `NCCNc1ncnc2ccc(Cl)cc12`, the concentration for total growth inhibition (TGI) in the experiment on NCI/ADR-RES ovarian, with MCF7 breast, with HT29 colon, in the experiment on LOX IMVI melanoma, in the experiment with HOP-62 NSCLC and in the experiment on SNB-19 CNS was above 100 µM each time. Besides, the concentration for total growth inhibition (TGI) in the experiment on SR leukemia, with OVCAR-5 ovarian, in the experiment on MDA-MB-435 and in the experiment on A498 renal was above 100 µM each time.
For the compound `C=CC(=O)Nc1cccc(Nc2nc(Nc3ccc(N4CCN(C(C)=O)CC4)cc3OC)ncc2C(F)(F)F)c1`, the GI50 is 7.5 µM and 9.09 µM with NCI/ADR-RES ovarian; 1.41 µM and 0.933 µM with MCF7 breast; 2.18 µM and 1.55 µM with HT29 colon; 2.71 µM and 3.04 µM in the experiment on LOX IMVI melanoma; 6.52 µM and 6.2 µM in the experiment with HOP-62 NSCLC; 5.83 µM with SNB-19 CNS. For the same compound, the GI50 is 3.37 µM and 1.45 µM with SR leukemia; 3.15 µM and 2.29 µM with OVCAR-5 ovarian; 4.11 µM and 2.95 µM in the experiment with MDA-MB-435; 2 µM and 0.802 µM in the experiment with A498 renal. The TGI was above 74.4 µM with NCI/ADR-RES ovarian; above 100 µM in the experiment with MCF7 breast; above 27.1 µM in the experiment on HT29 colon; > 10 µM and 14.2 µM with LOX IMVI melanoma; > 10 µM and 25.9 µM with HOP-62 NSCLC; above 100 µM with SNB-19 CNS. Also, the TGI in the experiment with SR leukemia was 8.32 µM and > 45.3 µM; in the experiment on OVCAR-5 ovarian, above 100 µM; with MDA-MB-435 it was > 10 µM and 19.2 µM; with A498 renal it was 6.01 µM and 2.94 µM.
On to `COC(=O)[C@]1(C)CC[C@]2(C)CC[C@]3(C)C(=CC(=O)[C@@H]4[C@@]5(C)CCC(=O)NC(C)(C)[C@@H]5CC[C@]43C)[C@@H]2C1`, for which the GI50 in the experiment on NCI/ADR-RES ovarian was 20.2 µM; in the experiment on MCF7 breast, 13.3 µM; in the experiment with HT29 colon, 11.9 µM; in the experiment on LOX IMVI melanoma it was 16.6 µM; with HOP-62 NSCLC, 29 µM; with SNB-19 CNS, 29 µM. Moreover, the GI50 with SR leukemia was 15.5 µM; in the experiment with OVCAR-5 ovarian, 21.3 µM; with MDA-MB-435, 26.6 µM; in the experiment on A498 renal it was 21.4 µM. The TGI with NCI/ADR-RES ovarian was 53.6 µM; in the experiment on MCF7 breast, 43.5 µM; with HT29 colon, 80.5 µM; in the experiment on LOX IMVI melanoma, 32.3 µM; in the experiment with HOP-62 NSCLC it was above 100 µM; in the experiment on SNB-19 CNS, above 100 µM. The TGI was 50.5 µM with SR leukemia, 38.9 µM in the experiment on OVCAR-5 ovarian, above 100 µM with MDA-MB-435 and 46.4 µM with A498 renal.
Take `CC(=O)N1c2ccc(-c3ccc(C(=O)O)cc3)cc2[C@H](Nc2ccc(Cl)cc2)C[C@@H]1C`: the GI50 in the experiment on NCI/ADR-RES ovarian is 0.551 µM; with MCF7 breast it was 0.0273 µM; with HT29 colon, 0.122 µM; in the experiment with LOX IMVI melanoma, 0.0628 µM; in the experiment on HOP-62 NSCLC, 0.0677 µM; with SNB-19 CNS, 1.06 µM. For the same compound, the GI50 in the experiment with SR leukemia was 0.0342 µM; in the experiment on OVCAR-5 ovarian, 1.45 µM; with MDA-MB-435, 0.233 µM; with A498 renal it was 0.0667 µM. Also, the TGI is above 100 µM with NCI/ADR-RES ovarian; above 100 µM in the experiment on MCF7 breast; 29 µM in the experiment on HT29 colon; 3.48 µM in the experiment on LOX IMVI melanoma; 22.4 µM in the experiment with HOP-62 NSCLC; above 100 µM in the experiment on SNB-19 CNS. For the same compound, the TGI with SR leukemia is 18.7 µM; in the experiment with OVCAR-5 ovarian it was above 46.6 µM; with MDA-MB-435, above 56 µM; in the experiment with A498 renal it was 1.71 µM.
For `O=[N+]([O-])c1ccc2nc(=S)[nH]n2c1`, the TGI in the experiment with NCI/ADR-RES ovarian, with MCF7 breast, in the experiment with HT29 colon, in the experiment on LOX IMVI melanoma, in the experiment on HOP-62 NSCLC and with SNB-19 CNS was above 100 µM each time. Moreover, the TGI with SR leukemia, with OVCAR-5 ovarian, in the experiment with MDA-MB-435 and in the experiment on A498 renal was above 100 µM each time.
As to `CC(=O)c1cccc(NC(=O)/C(=N\NC(=S)NN)C2C(=O)Nc3ccccc3S2=O)c1` (centres undefined), the TGI in the experiment with NCI/ADR-RES ovarian, with MCF7 breast, in the experiment with HT29 colon, with LOX IMVI melanoma, with HOP-62 NSCLC and in the experiment on SNB-19 CNS was above 100 µM each time. The TGI with SR leukemia, in the experiment with OVCAR-5 ovarian, in the experiment with MDA-MB-435 and in the experiment with A498 renal was above 100 µM each time.
As for `CC(=O)Nc1cc(CN2CCCCC2)c(O)c2ncccc12`, the TGI in the experiment with NCI/ADR-RES ovarian was above 100 µM; in the experiment on MCF7 breast, above 100 µM; with HT29 colon, above 100 µM; with LOX IMVI melanoma, 84.8 µM; with HOP-62 NSCLC, above 100 µM; with SNB-19 CNS it was above 100 µM. Moreover, the TGI in the experiment on SR leukemia was 37.5 µM; in the experiment with OVCAR-5 ovarian, above 100 µM; in the experiment with MDA-MB-435, above 100 µM; with A498 renal, above 100 µM.
